Experimental data published in PubChem BioAssay (NCI).
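Here, GI50 denotes the concentration required for 50% inhibition of growth. TGI is the concentration that stops growth completely.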

Legend:
Experiment in all cases: NCI-60 cell line screen, 384-well format
MCF7 breast = tested on: MCF7 breast
NCI/ADR-RES ovarian = tested on: NCI/ADR-RES ovarian
DU-145 prostate = tested on: DU-145 prostate
NCI-H522 lung = tested on: NCI-H522 lung
MALME-3M melanoma = tested on: MALME-3M melanoma
T-47D breast = tested on: T-47D breast
NCI-H322M lung = tested on: NCI-H322M lung
UACC-62 melanoma = tested on: UACC-62 melanoma
CAKI-1 renal = tested on: CAKI-1 renal
MOLT-4 leukemia = tested on: MOLT-4 leukemia
PC-3 prostate = tested on: PC-3 prostate
HCC-2998 colon = tested on: HCC-2998 colon
A549 NSCLC = tested on: A549 NSCLC
SR leukemia = tested on: SR leukemia
SF-539 CNS = tested on: SF-539 CNS
SNB-19 CNS = tested on: SNB-19 CNS
SNB-75 CNS = tested on: SNB-75 CNS
A498 renal = tested on: A498 renal
KM12 colon = tested on: KM12 colon
HS 578T breast = tested on: HS 578T breast
SN12C renal = tested on: SN12C renal
HL-60(TB) leukemia = tested on: HL-60(TB) leukemia
SK-MEL-5 melanoma = tested on: SK-MEL-5 melanoma
LOX IMVI melanoma = tested on: LOX IMVI melanoma
HCT-116 colon = tested on: HCT-116 colon
OVCAR-3 ovarian = tested on: OVCAR-3 ovarian
NCI-H23 lung = tested on: NCI-H23 lung
SF-295 CNS = tested on: SF-295 CNS
MDA-MB-231 breast = tested on: MDA-MB-231 breast
SF-268 CNS = tested on: SF-268 CNS
HOP-62 NSCLC = tested on: HOP-62 NSCLC
U251 glioblastoma = tested on: U251 glioblastoma
OVCAR-8 ovarian = tested on: OVCAR-8 ovarian
NCI-H460 NSCLC = tested on: NCI-H460 NSCLC
COLO 205 colon = tested on: COLO 205 colon
OVCAR-5 ovarian = tested on: OVCAR-5 ovarian
SK-MEL-28 melanoma = tested on: SK-MEL-28 melanoma
HCT-15 colon = tested on: HCT-15 colon
EKVX NSCLC = tested on: EKVX NSCLC
MDA-MB-468 breast = tested on: MDA-MB-468 breast
HT29 colon = tested on: HT29 colon
TK-10 renal = tested on: TK-10 renal
BT-549 breast = tested on: BT-549 breast
RXF 393 renal = tested on: RXF 393 renal
RPMI-8226 leukemia = tested on: RPMI-8226 leukemia
UACC-257 melanoma = tested on: UACC-257 melanoma
IGROV1 ovarian = tested on: IGROV1 ovarian
MDA-MB-435 melanoma = tested on: MDA-MB-435 melanoma
M14 melanoma = tested on: M14 melanoma
OVCAR-4 ovarian = tested on: OVCAR-4 ovarian
NCI-H226 lung = tested on: NCI-H226 lung
ACHN renal = tested on: ACHN renal
HOP-92 NSCLC = tested on: HOP-92 NSCLC

`Cn1cc(-c2[nH]c3cc(NC(=O)[C@H](N)C4CCCCC4)cc4c3c2C=NNC4=O)cn1` gave a GI50 (MCF7 breast) of 0.176 µM, a TGI (MCF7 breast) of 12.7 µM and a GI50 (NCI/ADR-RES ovarian) of 4.97 µM. For the same compound, the TGI (NCI/ADR-RES ovarian) was 23.1 µM, the GI50 (DU-145 prostate) was 0.359 µM and the TGI (DU-145 prostate) was 12.4 µM. The GI50 (NCI-H522 lung) was 0.219 µM, the TGI (NCI-H522 lung) was 0.627 µM and the GI50 (MALME-3M melanoma) was 0.781 µM. The TGI (MALME-3M melanoma) was 17.4 µM, the GI50 (T-47D breast) was 12.2 µM and the TGI (T-47D breast) was 24.7 µM. For the same compound, the GI50 (NCI-H322M lung) was 0.198 µM, the TGI (NCI-H322M lung) was 0.894 µM and the GI50 (UACC-62 melanoma) was 0.486 µM. It also gave a TGI (UACC-62 melanoma) of 18.2 µM, a GI50 (CAKI-1 renal) of 0.531 µM and a TGI (CAKI-1 renal) of 12.4 µM. It also gave a GI50 (MOLT-4 leukemia) of 0.201 µM, a TGI (MOLT-4 leukemia) of 0.347 µM and a GI50 (PC-3 prostate) of 0.768 µM. For the same compound, the TGI (PC-3 prostate) was 13.4 µM, the GI50 (HCC-2998 colon) was 0.042 µM and the TGI (HCC-2998 colon) was 0.227 µM. For the same compound, the GI50 (A549 NSCLC) was 4.66 µM, the TGI (A549 NSCLC) was 17.3 µM and the TGI (SR leukemia) was 0.0272 µM. The GI50 (SF-539 CNS) was 0.0381 µM, the TGI (SF-539 CNS) was 0.156 µM and the GI50 (SNB-19 CNS) was 0.299 µM. For the same compound, the TGI (SNB-19 CNS) was 1.09 µM, the GI50 (SNB-75 CNS) was 0.506 µM and the TGI (SNB-75 CNS) was 2.99 µM. For the same compound, the GI50 (A498 renal) was 0.0916 µM, the TGI (A498 renal) was 0.277 µM and the GI50 (KM12 colon) was 0.466 µM. It also gave a TGI (KM12 colon) of 8.76 µM, a GI50 (HS 578T breast) of 0.191 µM and a TGI (HS 578T breast) of 0.847 µM. The GI50 (SN12C renal) was 0.2 µM, the TGI (SN12C renal) was 0.856 µM and the GI50 (HL-60(TB) leukemia) was 0.204 µM. The TGI (HL-60(TB) leukemia) was 0.353 µM, the GI50 (SK-MEL-5 melanoma) was 0.175 µM and the TGI (SK-MEL-5 melanoma) was 0.407 µM. It also gave a GI50 (LOX IMVI melanoma) of 0.312 µM, a TGI (LOX IMVI melanoma) of 1.06 µM and a GI50 (HCT-116 colon) of 0.427 µM. The TGI (HCT-116 colon) was 6.28 µM, the GI50 (OVCAR-3 ovarian) was 0.0496 µM and the TGI (OVCAR-3 ovarian) was 0.209 µM. The GI50 (NCI-H23 lung) was 0.276 µM, the TGI (NCI-H23 lung) was 1.74 µM and the GI50 (SF-295 CNS) was 0.339 µM. For the same compound, the TGI (SF-295 CNS) was 2.3 µM, the GI50 (MDA-MB-231 breast) was 0.599 µM and the TGI (MDA-MB-231 breast) was 9.62 µM. It also gave a GI50 (SF-268 CNS) of 0.169 µM, a TGI (SF-268 CNS) of 10.9 µM and a GI50 (HOP-62 NSCLC) of 0.203 µM. It also gave a TGI (HOP-62 NSCLC) of 0.483 µM, a GI50 (U251 glioblastoma) of 0.32 µM and a TGI (U251 glioblastoma) of 1.52 µM. It also gave a GI50 (OVCAR-8 ovarian) of 0.153 µM, a TGI (OVCAR-8 ovarian) of 0.359 µM and a GI50 (NCI-H460 NSCLC) of 3.09 µM. The TGI (NCI-H460 NSCLC) was 11.1 µM, the GI50 (COLO 205 colon) was 0.489 µM and the TGI (COLO 205 colon) was 1.71 µM. For the same compound, the GI50 (OVCAR-5 ovarian) was 0.326 µM, the TGI (OVCAR-5 ovarian) was 0.953 µM and the GI50 (SK-MEL-28 melanoma) was 0.761 µM. For the same compound, the TGI (SK-MEL-28 melanoma) was 16.4 µM, the GI50 (HCT-15 colon) was 2.72 µM and the TGI (HCT-15 colon) was 9.18 µM. For the same compound, the GI50 (EKVX NSCLC) was 0.538 µM, the TGI (EKVX NSCLC) was 11.4 µM and the GI50 (MDA-MB-468 breast) was 0.186 µM. The TGI (MDA-MB-468 breast) was 0.426 µM, the GI50 (HT29 colon) was 1.03 µM and the TGI (HT29 colon) was 2.58 µM. For the same compound, the GI50 (TK-10 renal) was 0.222 µM, the TGI (TK-10 renal) was 0.515 µM and the GI50 (BT-549 breast) was 0.152 µM. The TGI (BT-549 breast) was 0.362 µM, the GI50 (RXF 393 renal) was 0.211 µM and the TGI (RXF 393 renal) was 0.689 µM. For the same compound, the GI50 (RPMI-8226 leukemia) was 1.92 µM, the TGI (RPMI-8226 leukemia) was 3.37 µM and the GI50 (UACC-257 melanoma) was 1.42 µM. For the same compound, the TGI (UACC-257 melanoma) was 6.26 µM, the GI50 (IGROV1 ovarian) was 0.275 µM and the TGI (IGROV1 ovarian) was 0.96 µM. It also gave a GI50 (MDA-MB-435 melanoma) of 0.166 µM, a TGI (MDA-MB-435 melanoma) of 0.34 µM and a GI50 (M14 melanoma) of 0.195 µM. For the same compound, the TGI (M14 melanoma) was 0.402 µM, the GI50 (OVCAR-4 ovarian) was 0.0296 µM and the TGI (OVCAR-4 ovarian) was 0.0939 µM. For the same compound, the GI50 (NCI-H226 lung) was 0.636 µM, the TGI (NCI-H226 lung) was 3.95 µM and the GI50 (ACHN renal) was 0.314 µM. The TGI (ACHN renal) was 0.954 µM, the GI50 (HOP-92 NSCLC) was 0.111 µM and the TGI (HOP-92 NSCLC) was 5.43 µM.
